This is an account of results in patent US8455014B2, “Composition comprising Trachelospermi caulis and Pyrola japonica extracts for the treatment and prevention of inflammatory diseases” (Sinil Pharmaceutical Co., Ltd., priority 2007, dated 2013).

Structures are written as SMILES.

In experiment [1] the test system is NF-κB. As to conditions: human keratinocytes; J Dermatol Sci. 2003; 31(3):193-201; cited from earlier work.
The subject of experiment [2] is TNF-α. The conditions noted are these: Int Immunopharmacol. 2004; 4(10-11):1419-29; cited from earlier work.
Experiment [3] relates to vascular permeability induced by acetic acid. Nature of the experiment: Acetic acid-induced vascular permeability in mice. It counts as in vivo, ICR mice. As to conditions: Evans blue in abdominal cavity, OD 630 nm. As for the experimental part:
The inhibitory effect of the mixed herbal extract obtained in the above reference example 3 against vascular permeability was investigated.
Seven week old ICR mice were separated into each experimental group, orally administered with Trachelospermi caulis extract at a concentration of 20 mg/kg and 200 mg/kg, respectively, Pyrola japonica extract at a concentration of 20 mg/kg and 200 mg/kg, respectively, and a mixed […], respectively, after dissolving them in distilled water to a concentration of 0.1 mL/10 g b.wt., by using a sonde.
The dosage volume was determined based on the body weight measured on the day of experiment and the control group was only administered with distilled water, a preparation solvent, at a concentration of 0.1 mL/10 g b.wt. Phenylbutazone was orally administered with a dosage of 50 mg/kg b.wt. after suspending it in 0.5% methyl cellulose.
ICR male mice, which were fasted for 12 hours prior to the experiment, were administered with a test substance according to the method of Whittle (1964). […] The washing solution was collected from the abdominal cavity and then centrifuged at 2,000 rpm for 10 minutes and the supernatant was measured of its optical density at 630 nm by using a spectrophotometer to calculate the amount of Evan's blue solution flowed into the abdominal cavity. […]

Turning to `OC[C@H]1O[C@@H](Oc2ccc(O)cc2)[C@H](O)[C@@H](O)[C@@H]1O` [Arbutin], in experiment [1], the “activity of NF-κB” value was “inhibit the activity of NF-κB”. Take `COc1cc(C[C@H]2C(=O)OC[C@@H]2Cc2ccc(OC)c(OC)c2)ccc1O` [arctigenin]: in experiment [2], the TNF-α inhibitory activity entry is “TNF-α inhibitory activity”. Take `COc1ccc(C[C@H]2COC(=O)[C@@H]2Cc2ccc(O[C@@H]3O[C@H](CO)[C@@H](O)[C@H](O)[C@H]3O)c(OC)c2)cc1OC` [arctiin]: the TNF-α inhibitory activity result in experiment [2] is listed as “TNF-α inhibitory activity”. For the compound `COc1ccc2c(c1)c(CC(=O)O)c(C)n2C(=O)c1ccc(Cl)cc1` [indomethacin], the Leakage of dye in experiment [3] (1 mg/kg) is 36.3 ± 2.67 μg/10 g b. wt.

For the compound `CCCCC1C(=O)N(c2ccccc2)N(c2ccccc2)C1=O` [phenylbutazone], in experiment [3] (50 mg/kg oral), the Leakage of dye is 39.0 ± 3.45 μg/10 g b. wt.
